We go through one substance from US20240384250A1, “FIBROBLAST GROWTH FACTOR 23 MODULATING COMPOUNDS” (THE UAB RESEARCH FOUNDATION, priority 2021, published 2024).

“Also recorded” adds a separate entry of the source.

One series deals with T1, FGF7 binding to FGFR1c (Homo sapiens, UniProt P11362).
T1 construct: a chimeric protein consisting of the FGFR1 ectodomain and the Fc region of a human IgG; purchased R&D Systems 251-KG/CF; 658FR050
Briefly: Plate-based binding of paracrine FGF to Fc-FGFR1c with heparin and/or sKL. The conditions noted are these: 0.4 USP heparin. As to the method:
(§1) Proteins were coated on 96-well plates (MaxiSorp; 439454, Thermo Fisher Scientific), and proteins were added to wells in 100 μl of enzyme-linked immunosorbent assay (ELISA) coating buffer (E107, Bethyl Laboratories) with a lid placed overtop and incubated at 4° C. overnight. Plates were washed 5× with 350 μl of assay buffer (50 mM Tris [pH 7.4], 200 mM NaCl, 0.01% Tween 20) on a 50 TS microplate washer (BioTek). Plates were blocked for 1 hour in 200 μl of assay buffer with 0.5% BSA. Plates were washed as before, and proteins were incubated on plates in 100 μl of assay buffer with 0.5% BSA. Proteins or heparin was incubated in orders described in the respective figure legends. Assays using FLAG-tag-based detection were incubated with anti-FLAG coupled to HRP at 1:20,000, and assays using Fc detection were incubated with anti-human Fc coupled to HRP at 1:10,000. Plates were washed as above, and 100 μl of 3,3′,5,5′-tetramethylbenzidine (TMB) substrate (E102, Bethyl Laboratories) was added for 15 to 20 minutes until positive wells developed a dark blue color. Reactions were stopped with ELISA stop solution (E115, Bethyl Laboratories) and analyzed using the Synergy HI plate reader (BioTek) at 450 nm wavelength. […] As a control to remove background absorbance values, wells were coated with an equal amount of BSA to match the amount of protein coated in experimental wells and treated the same as experimental wells. To study the effects of sKL on the binding between paracrine FGFs and FGFRs, plates were run as above except coated with paracrine FGFs. Fc-FGFR1 was preincubated with sKL or vehicle for 60 minutes, and then the combination was added to wells and the assay was run as before.

The target of the next series is T2, FGF2 binding to FGFR1c (Homo sapiens, UniProt P11362).
T2 construct: a chimeric protein consisting of the FGFR1 ectodomain and the Fc region of a human IgG; purchased R&D Systems 233-FB/CF; 658FR050
T2 sequence (P11362 22-376 limits assumed): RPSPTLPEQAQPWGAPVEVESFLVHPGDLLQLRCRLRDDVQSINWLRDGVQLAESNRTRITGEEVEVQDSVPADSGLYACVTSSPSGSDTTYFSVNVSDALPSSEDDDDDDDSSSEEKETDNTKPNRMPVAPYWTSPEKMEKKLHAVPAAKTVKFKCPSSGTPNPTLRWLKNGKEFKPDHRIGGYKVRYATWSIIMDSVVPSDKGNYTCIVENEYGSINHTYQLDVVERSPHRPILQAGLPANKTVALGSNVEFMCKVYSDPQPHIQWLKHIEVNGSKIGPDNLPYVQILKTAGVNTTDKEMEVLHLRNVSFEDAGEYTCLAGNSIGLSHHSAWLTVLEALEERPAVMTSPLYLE
Described as above. Conditions: 0.4 USP heparin before incubation with FGFR1c. As to the method:
as §1

Series [1] deals with BALB/c mice on 0.2% adenine diet. Conditions: mouse, in vivo.
From the text: This diet-induced model of CKD, which develops kidney tubulointerstitial damage and cardiac hypertrophy, was constructed in accordance with previous studies.^74,75 Male and female mice were studied in separate groups on the basis of the gender-specific effect of adenine, with females taking much longer (16-20 weeks) to develop kidney injury.^76 Five-week-old BALB/c mice (The Jackson Laboratory) were put on the control diet for 1 week. After 1 week, male and female mice were each split into 4 groups, receiving control chow and saline injections, control chow and heparin injections, adenine chow and saline injections, or adenine chow and heparin injections. […]
Short-axis heart sections were stained with H&E (IDEXX Laboratories) and used for representative images. Pictures were taken with a Leica Dmi8 fluorescence microscope. The crosssectional area of individual cardiac myocytes in paraffin-embedded short-axis sections was measured. […] Immunofluorescence images were taken with a Leica Dmi8 fluorescence microscope with a 60× oil objective. ImageJ software (National Institutes of Health) was used to quantify the cross-sectional area of 25 cells per field in 4 fields along the mid-chamber free wall on the basis of WGA-positive staining.
For series [2], the system named is FGF21 binding to FGFR isoforms 1c, 2c, 3c, 4. Briefly: Pull-down and plate binding of FGF21 to FGFR isoforms with sKL or heparin. On the set-up: species or system human. The method, then: To study the interaction between Fc-tagged FGFR isoforms (Fc-FGFR), FGF isoforms, and sKL, immunoprecipitation studies were conducted. Protein A beads (6501, BioVision) and protein G beads (6511, BioVision) were used at 25 μl of a 50% stock slurry per sample in a total bead volume of 50 μl. Beads were washed 5× in activity buffer (50 mM Tris [pH 7.4], 200 mM NaCl, 0.01% Tween 20). Bead spin-down assays were all performed for 2 minutes at 5000 g. Beads were resuspended in 1 ml of activity buffer in a 1.5-ml snap cap tube. One microgram of Fc-FGFR1 to 4 was incubated with the beads for 1 hour on a bead rotator. Control samples were incubated with 2 μg of anti-FGF antibody instead of Fc-FGFR. […] Samples were analyzed using SDS-PAGE and Western blotting.
Proteins were coated on 96-well plates (MaxiSorp; 439454, Thermo Fisher Scientific), and proteins were added to wells in 100 μl of enzyme-linked immunosorbent assay (ELISA) coating buffer (E107, Bethyl Laboratories) with a lid placed overtop and incubated at 4° C. overnight. […] Reactions were stopped with ELISA stop solution (E115, Bethyl Laboratories) and analyzed using the Synergy HI plate reader (BioTek) at 450 nm wavelength. […] As a control to remove background absorbance values, wells were coated with an equal amount of BSA to match the amount of protein coated in experimental wells and treated the same as experimental wells. […]

The subject of another series is male BALB/c mice. In words: Serial FGF23 and heparin injections in mice, echocardiography and heart weight. The conditions noted are these: heparin 125 USP/kg and/or FGF23 40 μg/kg. In kind it is in vivo, mouse. As to the method:
FGF23 injections were administered following a similar protocol established previously. 13,72,73 Briefly, 12-week-old male BALB/c mice (The Jackson Laboratory) underwent tail vein injections. The day before the experiment, mice underwent echocardiographic analysis, as described below. Mice were anesthetized in 2.5% isoflurane and placed on a heat pad. Each group consisted of 5 mice, and different groups were injected with isotonic saline, heparin, FGF23, or FGF23 and heparin combined. Per injection, 40 μg/kg of FGF23 and 125, 62.5, or 12.5 USP/kg of heparin dissolved in 200 μl of isotonic saline were used, with 8 hours were used between injections for a total of 5 consecutive days. All injections were performed via the lateral tail vein. On the morning of the sixth day, 16 hours after the final tail vein injection, animals underwent echocardiographic analysis and were killed. Middle sections of hearts were cut along the short axis and stored overnight in 4% phosphate-buffered formaldehyde solution. Sections were sent to IDEXX Laboratories for embedding, hematoxylin and eosin (H&E) staining, and sectioning. Sections for wheat germ agglutinin (WGA) labeling were not stained by IDEXX Laboratories.
Echocardiographic analysis was performed on day 6 of the experiment for FGF23-injected mice by using the Vevo 770 or Vevo 3100 imaging system (FUJIFILM VisualSonics). Animals were anesthetized with 1.5% isoflurane, and normal body temperature was maintained using a rectal probe for temperature monitoring. For analysis, both B- and M-mode images were obtained in the short- and long-axis views. Correct positioning of the transducer was ensured using B-mode imaging in the long-axis view before switching to the short-axis view. Image analysis was performed using Vevo 770 Workstation and Vevo LAB software (FUJIFILM VisualSonics).

As to heparin [reference compound], the “FGF7 binding to FGFR1c with heparin” value on FGF7 binding to FGFR1c is reported as “did not induce binding”. The “FGF2 binding to FGFR1c with heparin” value at FGF2 binding to FGFR1c is recorded as “increased the binding of FGF2”. Also, the “FGF2 binding to FGFR1c with heparin” value on FGF2 binding to FGFR1c (listed as heparin) was “significantly increased; also recorded: increased FGF2 binding”. Further, in series [1], the “effect on the heart” value is given as “no effect on the heart” and the “ratio of heart weight to body weight” value is “not significantly altered”. The “binding of FGF21 to any of the FGFR isoforms” value in series [2] is given as “does not mediate binding”. Besides, in the series with male BALB/c mice, the “Endocardial % EF” value is listed as 56.51 ± 4.08%, the “Endocardial % FAC” value amounted to 47.34 ± 2.41%, the Endocardial Area; s came out at 5.47 ± 0.44 mm² and the “Endocardial major; d” value worked out at 7.23 ± 0.11 mm. In the series with male BALB/c mice, the Epicardial Area: s amounted to 18.2 ± 0.63 mm², the Epicardial Area; d is 22.5 ± 0.78 mm², the Heart rate stood at 448.40 ± 4.52 BPM and the “LV Mass; d” value is 111.90 ± 5.23 mg. The “T; d” value in the series with male BALB/c mice was found to be 0.88 ± 0.03 mm.
